In US11945822B2, “Pyrazolo-triazine and/or pyrazolo-pxrimidine derivatives as selective inhibitor of cyclin dependent kinase” (QURIENT CO., LTD., priority 2018, dated 2024):
pIC50: −log10 of the molar value. Like-named read-outs stand apart in the source and are kept apart here.

Columns and labels:
MV4-11 = experiment: Cellular MV4-11 viability assay (CellTiter-Glo, 72 hours); assay type: cell-based; settings: Homo sapiens
In short: (§1)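 Cells plated in 96 wells and exposed to compound 72 h at 37 °C, 5% CO2, final DMSO below 0.1%, DMSO control. Viability by CellTiter-Glo luminescence, duplicate.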

MOLT-4 = experiment: Cellular MOLT-4 viability assay (CellTiter-Glo, 72 hours); assay type: cell-based; settings: Homo sapiens, MOLT4 viability assay
In short: as §1

CDK1/Cyclin B = molecular target: T1, CDK1/Cyclin B (Homo sapiens, UniProt P06493); experiment: Enzymatic assay for CDK1 (FRET based LANCE Ultra kinase assay); assay type: biochemical; settings: read-out: CDK1 enzymatic activity (IC50 range)
T1 construct: purchased Invitrogen PR4768C
T1 sequence (P06493 whole entry): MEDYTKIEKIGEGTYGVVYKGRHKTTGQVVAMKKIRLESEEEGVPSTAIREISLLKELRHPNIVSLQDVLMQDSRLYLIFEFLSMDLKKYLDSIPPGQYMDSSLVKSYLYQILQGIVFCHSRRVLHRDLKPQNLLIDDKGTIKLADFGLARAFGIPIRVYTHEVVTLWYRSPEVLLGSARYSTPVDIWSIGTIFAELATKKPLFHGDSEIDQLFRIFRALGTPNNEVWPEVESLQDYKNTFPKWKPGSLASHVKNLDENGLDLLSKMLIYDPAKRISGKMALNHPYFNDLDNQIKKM
T1 sequence (P14635 whole entry partner): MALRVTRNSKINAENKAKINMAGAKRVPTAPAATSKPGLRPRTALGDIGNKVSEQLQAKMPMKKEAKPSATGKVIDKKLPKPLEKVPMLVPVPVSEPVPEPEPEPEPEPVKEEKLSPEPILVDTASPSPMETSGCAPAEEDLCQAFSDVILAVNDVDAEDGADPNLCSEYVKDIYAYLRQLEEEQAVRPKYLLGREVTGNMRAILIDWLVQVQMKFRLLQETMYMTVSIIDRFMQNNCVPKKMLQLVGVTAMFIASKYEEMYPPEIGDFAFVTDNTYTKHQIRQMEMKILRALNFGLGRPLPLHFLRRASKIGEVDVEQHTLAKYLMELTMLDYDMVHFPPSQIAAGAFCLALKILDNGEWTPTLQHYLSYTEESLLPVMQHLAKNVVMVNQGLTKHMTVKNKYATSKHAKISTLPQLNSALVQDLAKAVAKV
In short: (§2)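 LANCE Ultra TR-FRET: ULight-MBP peptide (68 nM) with ATP at Km, […], 60 min at 23° C. EDTA plus Eu-anti-phospho-MBP added, another 60 min, then 665/615 nm emission read. Compounds tested as 8-dose 4-fold DMSO dilutions.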

CDK2/Cyclin A = molecular target: T2, CDK2/Cyclin A (Homo sapiens, UniProt P24941); experiment: Enzymatic assay for CDK2 (FRET based LANCE Ultra kinase assay); assay type: biochemical; settings: read-out: CDK2 enzymatic activity (IC50 range)
T2 construct: purchased Invitrogen PV6290
In short: as §2

CDK5/p25 = molecular target: T3, CDK5/p25 (Homo sapiens, UniProt Q00535); experiment: Enzymatic assay for CDK5 (FRET based LANCE Ultra kinase assay); assay type: biochemical; settings: read-out: CDK5 enzymatic activity (IC50 range)
T3 construct: purchased Invitrogen PR8543B
T3 sequence (Q00535 whole entry): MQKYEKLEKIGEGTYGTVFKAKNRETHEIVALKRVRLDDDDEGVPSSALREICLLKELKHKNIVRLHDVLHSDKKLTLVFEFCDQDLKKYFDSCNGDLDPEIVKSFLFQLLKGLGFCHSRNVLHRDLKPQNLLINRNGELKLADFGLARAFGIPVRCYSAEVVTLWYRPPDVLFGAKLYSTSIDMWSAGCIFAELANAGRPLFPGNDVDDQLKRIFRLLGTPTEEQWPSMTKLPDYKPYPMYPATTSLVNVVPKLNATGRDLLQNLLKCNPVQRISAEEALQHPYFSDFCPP
T3 sequence (Q15078 99-307 partner limits assumed): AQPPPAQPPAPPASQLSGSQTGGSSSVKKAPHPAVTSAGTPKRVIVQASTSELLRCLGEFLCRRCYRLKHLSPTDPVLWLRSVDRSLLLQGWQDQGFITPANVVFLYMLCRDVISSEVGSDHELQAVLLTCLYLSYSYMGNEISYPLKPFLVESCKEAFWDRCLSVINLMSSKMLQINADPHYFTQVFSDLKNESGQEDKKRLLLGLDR
In short: as §2

H460 = experiment: Cellular H460 viability assay (CellTiter-Glo, 72 hours); assay type: cell-based; settings: Homo sapiens, NCI-H460
In short: as §1

CDK7/Cyclin H/MNAT1 = molecular target: T4, CDK7/Cyclin H/MNAT1 (Homo sapiens, UniProt P50613); experiment: Enzymatic assay for CDK7 (FRET based LANCE Ultra kinase assay); assay type: biochemical
T4 construct: purchased Invitrogen PR6749B
T4 sequence (P50613 whole entry): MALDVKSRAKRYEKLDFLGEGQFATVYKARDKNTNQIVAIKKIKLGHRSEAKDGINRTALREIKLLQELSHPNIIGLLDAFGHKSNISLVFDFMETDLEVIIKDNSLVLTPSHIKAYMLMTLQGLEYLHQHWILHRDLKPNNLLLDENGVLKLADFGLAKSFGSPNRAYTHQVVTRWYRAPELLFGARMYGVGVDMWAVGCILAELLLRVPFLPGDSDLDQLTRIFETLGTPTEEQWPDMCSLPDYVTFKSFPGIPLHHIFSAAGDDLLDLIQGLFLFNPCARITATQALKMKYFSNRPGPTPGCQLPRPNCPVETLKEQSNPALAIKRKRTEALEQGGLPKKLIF
T4 sequence (P51946 whole entry partner): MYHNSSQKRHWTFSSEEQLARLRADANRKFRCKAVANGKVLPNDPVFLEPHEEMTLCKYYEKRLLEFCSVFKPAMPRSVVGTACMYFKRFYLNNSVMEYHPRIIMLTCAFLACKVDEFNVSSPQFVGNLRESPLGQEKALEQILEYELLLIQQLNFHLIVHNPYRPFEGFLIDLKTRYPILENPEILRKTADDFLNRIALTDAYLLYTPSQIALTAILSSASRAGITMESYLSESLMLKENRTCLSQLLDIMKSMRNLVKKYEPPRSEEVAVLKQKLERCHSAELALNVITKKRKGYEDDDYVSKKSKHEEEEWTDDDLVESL
T4 sequence (P51948 whole entry partner): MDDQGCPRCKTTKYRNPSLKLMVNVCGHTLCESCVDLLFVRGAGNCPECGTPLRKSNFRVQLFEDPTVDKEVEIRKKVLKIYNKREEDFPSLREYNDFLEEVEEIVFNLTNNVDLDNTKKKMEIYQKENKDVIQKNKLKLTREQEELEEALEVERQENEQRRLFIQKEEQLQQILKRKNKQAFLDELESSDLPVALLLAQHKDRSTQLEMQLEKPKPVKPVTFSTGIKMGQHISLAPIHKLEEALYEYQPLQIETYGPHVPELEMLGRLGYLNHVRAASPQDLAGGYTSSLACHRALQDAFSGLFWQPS
In short: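 LANCE Ultra TR-FRET kinase assay using a ULight-labeled peptide substrate and a Eu-labeled anti-phospho antibody, with ATP at its Km. Purified CDK/cyclin complex was added to compound after brief centrifugation.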

RPMI-8226 = experiment: Cellular RPMI-8226 viability assay (CellTiter-Glo, 72 hours); assay type: cell-based; settings: Homo sapiens
In short: as §1

HCT116 = experiment: Cellular HCT116 viability assay (CellTiter-Glo, 72 hours); assay type: cell-based; settings: Homo sapiens, HCT-116
In short: as §1

[1] = read-out: CDK7 enzymatic activity (IC50 range)

CC(C)c1cnn2c(NCc3ccccc3-n3cc4cc(Cl)ccc4n3)nc(N3CCC(N)CC3)nc12 [Compound 103]
pIC50 (MV4-11): > 6.00
pIC50 (MOLT-4): 5.00 to 6.00
pIC50 (CDK1/Cyclin B): < 6.00
pIC50 (CDK2/Cyclin A): 6.00 to 7.00
pIC50 (CDK5/p25): 6.00 to 7.00
pIC50 (H460): > 6.00
CDK1/CDK7: Selectivity of CDK7 inhibition over CDK1 inhibition (CDK7/Cyclin H/MNAT1): A (A=greater than 200 fold)
CDK2/CDK7: Selectivity of CDK7 inhibition over CDK2 inhibition (CDK7/Cyclin H/MNAT1): B (B=less than 200 fold, but greater than 20 fold)
CDK5/CDK7: Selectivity of CDK7 inhibition over CDK5 inhibition (CDK7/Cyclin H/MNAT1): B (B=less than 200 fold, but greater than 20 fold)
pIC50 (CDK7/Cyclin H/MNAT1; [1]): > 7.00
pIC50 (RPMI-8226): > 6.00

CC(C)c1cnn2c(NCc3ccccc3-n3cc4c(n3)CCCC4)nc(N3CCC(N)CC3)nc12 [Compound 109]
pIC50 (MV4-11): > 6.00
pIC50 (MOLT-4): > 6.00
pIC50 (CDK1/Cyclin B): < 6.00
pIC50 (CDK2/Cyclin A): 6.00 to 7.00
pIC50 (CDK5/p25): 6.00 to 7.00
pIC50 (H460): > 6.00
CDK1/CDK7: Selectivity of CDK7 inhibition over CDK1 inhibition (CDK7/Cyclin H/MNAT1): A (A=greater than 200 fold)
CDK2/CDK7: Selectivity of CDK7 inhibition over CDK2 inhibition (CDK7/Cyclin H/MNAT1): A (A=greater than 200 fold)
CDK5/CDK7: Selectivity of CDK7 inhibition over CDK5 inhibition (CDK7/Cyclin H/MNAT1): B (B=less than 200 fold, but greater than 20 fold)
pIC50 (CDK7/Cyclin H/MNAT1; [1]): > 7.00
pIC50 (RPMI-8226): > 6.00
pIC50 (HCT116): > 6.00

CC(C)c1cnn2c(NCc3ccccc3-n3ccc(-c4ccccc4)n3)nc(N3CCC(N)CC3)nc12 [Compound 99]
pIC50 (MV4-11): > 6.00
pIC50 (MOLT-4): 5.00 to 6.00
pIC50 (CDK1/Cyclin B): < 6.00
pIC50 (CDK2/Cyclin A): < 6.00
pIC50 (CDK5/p25): 6.00 to 7.00
pIC50 (H460): > 6.00
pIC50 (CDK7/Cyclin H/MNAT1): > 7.00
CDK1/CDK7: Selectivity of CDK7 inhibition over CDK1 inhibition (CDK7/Cyclin H/MNAT1): A (A=greater than 200 fold)
CDK2/CDK7: Selectivity of CDK7 inhibition over CDK2 inhibition (CDK7/Cyclin H/MNAT1): A (A=greater than 200 fold)
CDK5/CDK7: Selectivity of CDK7 inhibition over CDK5 inhibition (CDK7/Cyclin H/MNAT1): B (B=less than 200 fold, but greater than 20 fold)
pIC50 (RPMI-8226): 5.00 to 6.00
pIC50 (HCT116): > 6.00

CCCc1ccc2nn(-c3ccccc3CNc3nc(N4CCC(N)CC4)nc4c(C(C)C)cnn34)cc2c1 [Compound 106]
pIC50 (MV4-11): > 6.00
pIC50 (MOLT-4): 5.00 to 6.00
pIC50 (CDK1/Cyclin B): < 6.00
pIC50 (CDK2/Cyclin A): 6.00 to 7.00
pIC50 (CDK5/p25): 6.00 to 7.00
pIC50 (H460): > 6.00
CDK1/CDK7: Selectivity of CDK7 inhibition over CDK1 inhibition (CDK7/Cyclin H/MNAT1): A (A=greater than 200 fold)
CDK2/CDK7: Selectivity of CDK7 inhibition over CDK2 inhibition (CDK7/Cyclin H/MNAT1): B (B=less than 200 fold, but greater than 20 fold)
CDK5/CDK7: Selectivity of CDK7 inhibition over CDK5 inhibition (CDK7/Cyclin H/MNAT1): B (B=less than 200 fold, but greater than 20 fold)
pIC50 (CDK7/Cyclin H/MNAT1; [1]): > 7.00
pIC50 (RPMI-8226): > 6.00

CC(=O)Nc1ccc2[nH]c(-c3ccccc3CNc3nc(N4CCC(N)CC4)nc4c(C(C)C)cnn34)cc2c1 [Compound 116]
pIC50 (MV4-11): > 6.00
pIC50 (MOLT-4): > 6.00
pIC50 (CDK1/Cyclin B): 6.00 to 7.00
pIC50 (CDK2/Cyclin A): > 7.00
pIC50 (CDK5/p25): > 7.00
pIC50 (H460): > 6.00
CDK1/CDK7: Selectivity of CDK7 inhibition over CDK1 inhibition (CDK7/Cyclin H/MNAT1): B (B=less than 200 fold, but greater than 20 fold)
CDK2/CDK7: Selectivity of CDK7 inhibition over CDK2 inhibition (CDK7/Cyclin H/MNAT1): B (B=less than 200 fold, but greater than 20 fold)
CDK5/CDK7: Selectivity of CDK7 inhibition over CDK5 inhibition (CDK7/Cyclin H/MNAT1): C (C=less than 20 fold)
pIC50 (CDK7/Cyclin H/MNAT1; [1]): > 7.00
pIC50 (RPMI-8226): > 6.00
pIC50 (HCT116): > 6.00

CC(C)c1cnn2c(NCc3ccccc3-c3cnc4ccccc4n3)nc(N3CCC(N)CC3)nc12 [Compound 80]
pIC50 (MV4-11): > 6.00
pIC50 (MOLT-4): 5.00 to 6.00
pIC50 (CDK1/Cyclin B): 6.00 to 7.00
pIC50 (CDK2/Cyclin A): 6.00 to 7.00
pIC50 (CDK5/p25): > 7.00
pIC50 (H460): > 6.00
CDK1/CDK7: Selectivity of CDK7 inhibition over CDK1 inhibition (CDK7/Cyclin H/MNAT1): A (A=greater than 200 fold)
CDK2/CDK7: Selectivity of CDK7 inhibition over CDK2 inhibition (CDK7/Cyclin H/MNAT1): B (B=less than 200 fold, but greater than 20 fold)
CDK5/CDK7: Selectivity of CDK7 inhibition over CDK5 inhibition (CDK7/Cyclin H/MNAT1): B (B=less than 200 fold, but greater than 20 fold)
pIC50 (CDK7/Cyclin H/MNAT1; [1]): > 7.00
pIC50 (RPMI-8226): > 6.00
pIC50 (HCT116): > 6.00

CC(C)c1cnn2c(NCc3ccccc3-c3cc4ccccc4cn3)nc(N3CCC(N)CC3)nc12 [Compound 78]
pIC50 (MV4-11): > 6.00
pIC50 (MOLT-4): 5.00 to 6.00
pIC50 (CDK1/Cyclin B): 6.00 to 7.00
pIC50 (CDK2/Cyclin A): 6.00 to 7.00
pIC50 (CDK5/p25): > 7.00
pIC50 (H460): > 6.00
CDK1/CDK7: Selectivity of CDK7 inhibition over CDK1 inhibition (CDK7/Cyclin H/MNAT1): A (A=greater than 200 fold)
CDK2/CDK7: Selectivity of CDK7 inhibition over CDK2 inhibition (CDK7/Cyclin H/MNAT1): B (B=less than 200 fold, but greater than 20 fold)
CDK5/CDK7: Selectivity of CDK7 inhibition over CDK5 inhibition (CDK7/Cyclin H/MNAT1): B (B=less than 200 fold, but greater than 20 fold)
pIC50 (CDK7/Cyclin H/MNAT1; [1]): > 7.00
pIC50 (RPMI-8226): > 6.00
